# From patent US4853221A, “Method for treating non-small cell lung cancer, head and neck cancers and breast cancer” (Warner-Lambert Company, priority 1987, dated 1989)
# Tests used:
# [1] = tested on: Advanced Stage P388 Leukemia; assay type: in vivo, mouse; settings: Test 2
# Procedure: (§1) Several studies were carried out to determine the potential for therapeutic synergy of trimetrexate with several clinically active anticancer agents. […] (See, for example, Vendetti, "Relevance of Transplantable Animal-Tumor Systems to the Selection of New Agents for Clinical Trial," Pharmacological Basis of Cancer Chemotherapy. Williams and Wilkins, Baltimore, 1975, and Simpson Herren, et al., "Evaluation of In Vivo Tumor Models for Predicting Clinical Activity for Anticancer Drugs," Proc. Am. Assoc. Cancer Res., 26: 330 (1985).
# (§2) Differences in cell kill of greater than ten-fold (one log) were considered indicative of therapeutic synergy.
# (§3) CD2F1 mice were quarantined for at least two weeks prior to allocation to test groups. P388 leukemia was passaged in DBA2 mice according to standard protocols of the National Cancer Institute. On Day 0 of a given test, all mice in the test were randomized, injected intraperitoneally with suitably diluted ascites fluid from P388 tumor-bearing donor mice and rerandomized to test cages.
# The initial inoculum for all but titration groups was 10^6 cells as determined by hemocytometer count. […]
# (§4) Group average weights were determined for all groups on Days 1, 5, and 9 for "early stage" P388 tests and on Days 4, 8, and 12 for "advanced stage" P388 tests. Animals were monitored for life span. […]
# [2] = tested on: Early Stage P388 Leukemia; test: Combination chemotherapy, therapeutic synergy against early stage P388 leukemia; assay type: in vivo, mouse
# Procedure: as §1, §2, §3
# The initial inoculum for all but titration groups was 10^6 cells as determined by hemocytometer count. Each experiment contained an internal control and tumor titration which enabled the determination of the tumor doubling time and estimates of the log cell kill and number of tumor cells surviving treatment.
# Drug treatment was begun either on Day 1 or on Day 4 depending upon the relative activity of the agents being tested.
# All of the drugs were injected within one hour of dissolution, with the exception of trimetrexate which was made up fresh twice daily. All mice were treated on the basis of average cage-group weight.
# In drug combination regimens, trimetrexate was given approximately 30 minutes before the other therapeutic agents when the route of administration of the other agent was ip. […]
# as §4
# Ovarian tumor = test: Human tumor cloning system, ovarian tumors; assay type: cell-based; settings: methotrexate 0.3 μg/ml, one hour; 6 specimens
# Excerpt: (§5) The activity of trimetrexate was compared with that of methotrexate in tests with a human tumor cloning system (Latham, et al., Proc. Am. Assoc. Cancer Res., 24: 278 (1983)). The data from these tests appear in Table III were the activities are expressed as the numbers of tumors with 50% or greater reduction in tumor colony forming units after one hour exposure to the drug.
# Lung tumor = test: Human tumor cloning system, lung tumors; assay type: cell-based; settings: methotrexate 0.3 μg/ml, one hour; 8 specimens
# Excerpt: as §5
# L1210 cells = test: Inhibition of L1210 cell growth in vitro; assay type: cell-based, murine; settings: Mus musculus, L1210, 48 h, read-out: ED50 for L1210 Cells
# Procedure: Two leukemia cell lines (L1210 and L5178Y) and two solid tumor cell lines (Sarcoma 180 and Walker 256) were used in these studies.
# (§6) Logarithmically growing L1210 cells (approximately 3×10^5 cells/ml) were diluted with Fischer's medium (containing 10% horse serum) to an approximate concentration of 5×10^4 cells/ml. Cells were planted in duplicate into 15 ml culture tubes containing either no drug or various amounts of drug, and incubated for 48 hours at 37° C. before being counted.
# *ED50 = the concentration of drug required to reduce the cell count
# to 50%, determined by plotting the cell count versus drug concentration.
# Breast tumor = test: Human tumor cloning system, breast tumors; assay type: cell-based; settings: methotrexate 0.3 μg/ml, one hour; 10 specimens
# Excerpt: as §5
# B-Cell 8392 = test: Inhibition of B-Cell 8392 growth in vitro; assay type: cell-based, human; settings: Homo sapiens, B-cell, 48 h, read-out: ED50
# Procedure: as §6
# (§7) Trimetrexate was also evaluated in a similar manner side-by-side with methotrexate for its effect on the growth of three additional murine cell lines (L5178Y, Sarcoma-180, and Walkler-256) and three human cell lines (acute myelogenous leukemia K-562, T-cell 8402, and B-cell 8392), propagated in vitro.
# Colon tumor = test: Human tumor cloning system, colon tumors; assay type: cell-based; settings: methotrexate 0.3 μg/ml, one hour; 9 specimens
# Excerpt: as §5
# Renal tumor = test: Human tumor cloning system, renal tumors; assay type: cell-based; settings: methotrexate 0.3 μg/ml, one hour; 6 specimens
# Excerpt: as §5
# human tumor cultures = test: Human tumor cloning system, all tumors; assay type: cell-based
# Excerpt: as §5
# Miscell. tumors = test: Human tumor cloning system, miscellaneous tumors; assay type: cell-based; settings: methotrexate 0.3 μg/ml, one hour; 10 specimens
# Excerpt: as §5
# T-Cell 8402 = test: Inhibition of T-Cell 8402 growth in vitro; assay type: cell-based, human; settings: Homo sapiens, T-cell, 48 h, read-out: ED50
# Procedure: as §6, §7
# AML K-562 = test: Inhibition of AML K-562 cell growth in vitro; assay type: cell-based, human; settings: Homo sapiens, K562, 48 h, read-out: ED50
# Procedure: as §6, §7
# Melanoma = test: Human tumor cloning system, melanoma; assay type: cell-based; settings: methotrexate 0.3 μg/ml, one hour; 5 specimens
# Excerpt: as §5
compound,measurement,setting,value
"N.N.[Cl][Pt][Cl] [Cisplatin, cis-Diamminedichloroplatinum (II)]",single agent activity,[1],considerably less active as a single agent
"COc1cccc2c1C(=O)c1c(O)c3c(c(O)c1C2=O)C[C@@](O)(C(=O)CO)C[C@@H]3O[C@H]1C[C@H](N)[C@H](O)[C@H](C)O1 [Doxorubicin, (8S,10S)-10-[(3-Amino-2,3,6-trideoxy-α-L-lyxo-hexopyranosyl)oxy]-8-glycoloyl-7,8,9,10-tetrahydro-6,8,11-trihydroxy-1-methoxy-5,12-naphthacenedione]",single agent activity,[2]; Test 1,somewhat less active than expected
"CN(Cc1cnc2nc(N)nc(N)c2n1)c1ccc(C(=O)N[C@@H](CCC(=O)O)C(=O)O)cc1 [Methotrexate, N-[4-[[(2,4-diamino-6-pteridinyl)methyl]methylamino]benzoyl]-L-glutamic acid, reference compound]",Number of Tumors with 50% or Greater Decrease in Tumor Colony Forming Units,Ovarian tumor,0
same,Number of Tumors with 50% or Greater Decrease in Tumor Colony Forming Units,Lung tumor,1
same,IC50,L1210 cells,8 nM
same,Number of Tumors with 50% or Greater Decrease in Tumor Colony Forming Units,Breast tumor,1
same,IC50,B-Cell 8392,25 nM
same,Number of Tumors with 50% or Greater Decrease in Tumor Colony Forming Units,Colon tumor,2
same,Number of Tumors with 50% or Greater Decrease in Tumor Colony Forming Units,Renal tumor,1
same,human tumor cultures sensitive to methotrexate and resistant to trimetrexate,human tumor cultures; 4/54,7%
same,Number of Tumors with 50% or Greater Decrease in Tumor Colony Forming Units,"human tumor cultures; Totals, methotrexate 0.3 μg/ml, one hour, 54 specimens",7
same,Number of Tumors with 50% or Greater Decrease in Tumor Colony Forming Units,Miscell. tumors,1
same,IC50,T-Cell 8402,25 nM
same,IC50,AML K-562,50 nM
same,Number of Tumors with 50% or Greater Decrease in Tumor Colony Forming Units,Melanoma,1
"CC[C@]1(O)C[C@H]2CN(CCc3c([nH]c4ccccc34)[C@@](C(=O)OC)(c3cc4c(cc3OC)N(C=O)[C@H]3[C@@](O)(C(=O)OC)[C@H](OC(C)=O)[C@]5(CC)C=CCN6CC[C@]43[C@@H]65)C2)C1 [Vincristine, 22-Oxo-vincaleukoblastine]",single agent activity,[2]; Test 2,the more active of the single agents
